Consider eight compounds from patent publication US20060275854A1, “Method for monitoring reactions in real time” (priority 2003, published 2006).

In test [1] the target is porcine ALP. The note with it: known inhibitors; cited from earlier work.
The subject of the next test is calf intestine ALP. As to conditions: known; cited from earlier work.
Test [2] deals with porcine ALP. As to conditions: 0.1 mM compound, 0.75 mM AMP, FIG. 5A.
Description: The resulting mixture was incubated for another 10 min, followed by the addition of 5 units of porcine ALP (resulting in a concentration of 0.01 units/μL) and further incubation for 75 more minutes. The fluorescence intensity (FALP) was monitored continuously. For the same compound, the fluorescence intensity (FNoALP) of a control reaction with the addition of porcine ALP was also recorded in the same way.
Test [3] concerns anti-ATP signaling aptamer. Description: Fluorescence signaling of the structure-switching ATP aptamer reporter on target addition. The test is classed as binding. As to conditions: for fluorescence intensity increase over the background reading: 750 μM target, FIG. 1B.
Test [4] relates to Adenosine Deaminase (ADA). Description: Adenosine deaminase activity and inhibition monitored by signaling aptamer. The test is classed as biochemical. How it is done:
Adenosine deaminase transforms adenosine into inosine. […] Thus conversion from adenosine to inosine results in a decrease in fluorescent signal. […] EHNA is a known inhibitor of adenosine deaminase.
After 3 minutes, different concentrations of EHNA.HC1, an adenosine deaminase inhibitor, in DMSO were introduced: no inhibitor (blue line), 100 nM inhibitor (green line) and 10 μM inhibitor (red line). The solutions were further incubated for 5 more minutes. […] Finally, the solutions were exposed to an enzyme, called Adenosine Deaminase (ADA), which transforms adenosine into inosine. The aptamer has no affinity for the inosine, so the transformation should induce the disruption of the aptamer—adenosine complex state and the formation of a duplex state with the QDNA.

Structures are written as SMILES. Entries after “also recorded” stand apart in the source; their conditions may differ.

As for `Cl.c1ccc(C2CN3CCSC3=N2)cc1` (racemic) [Tetramisole, (±) 2,3,5,6-Tetrahydro-6-phenylimidazo[2,1-b]thiazole hydrochloride], on porcine ALP [1], the Ki entry is given as “low mM range”. Besides, the “inhibition of calf intestine ALP (in words)” value with calf intestine ALP is “not calf intestine ALP”. For the same compound, the “rate of transformation of AMP to adenosine relative to the uninhibited reaction” value in the test with porcine ALP [2] is given as “considerably reduced”.

For `Cl.c1ccc(C2CN3CCSC3=N2)cc1` (single isomer, unassigned; (-)) [Levamisole, (−) 2,3,5,6-Tetrahydro-6-phenylimidazo[2,1-b]thiazole hydrochloride], the Ki result on porcine ALP [1] is “low mM range”. Moreover, in the test on calf intestine ALP, the “inhibition of calf intestine ALP (in words)” value is reported as “not calf intestine ALP”. The “rate of transformation of AMP to adenosine relative to the uninhibited reaction” value in the test with porcine ALP [2] is “considerably reduced”.

With `Nc1ncnc2c1ncn2[C@@H]1O[C@H](COP(=O)(O)OP(=O)(O)O)[C@@H](O)[C@H]1O` [ADP, adenosine 5′-diphosphate], the “fluorescence intensity increase over the background reading” value (shortened to “fluorescence intensity increase”) in test [3] stood at 8.3 fold.

On to `Nc1ncnc2c1ncn2[C@@H]1O[C@H](COP(=O)(O)O)[C@@H](O)[C@H]1O` [AMP, adenosine 5′-monophosphate], for which, in test [3], the “affinity of the signaling aptamer for the substance (in words)” value (“affinity of the signaling aptamer” below) is “moderate affinity” and the “fluorescence intensity increase” value amounted to 5.3 fold.

As to `Nc1ncnc2c1ncn2[C@@H]1O[C@H](COP(=O)(O)OP(=O)(O)OP(=O)(O)O)[C@@H](O)[C@H]1O` [ATP, adenosine 5′-triphosphate], the “fluorescence intensity increase” value in test [3] is 6.9 fold.

Turning to `CCCCCC[C@@H]([C@@H](C)O)n1cnc2c(N)ncnc21.Cl` [EHNA], the rate of deamination result was “slower” in test [4] (100 nM inhibitor, 1 mM adenosine); “virtually stopped” in test [4] (10 μM inhibitor, 1 mM adenosine); “almost no deamination” in test [4] (10 μM inhibitor, 1 mM adenosine, listed as EHNA.HC1); “reduced” in test [4] (100 mM EHNA, FIG. 6).

Consider `Nc1ncnc2c1ncn2[C@@H]1O[C@H](CO)[C@@H](O)[C@H]1O` [adenosine], for which, in test [3], the “affinity of the signaling aptamer” value is reported as “higher affinity” and the “fluorescence intensity increase” value was 8.1 fold.

Consider `OC[C@H]1O[C@@H](n2cnc3c(O)ncnc32)[C@H](O)[C@@H]1O` [inosine], for which the “affinity of the signaling aptamer” value in test [3] is “virtually no affinity; also recorded: no affinity at all”.
